Experimental data reported in PMC12723162, “Alphaherpesvirus pUL21 homologs use non-canonical sequences to compete with cellular adaptors for protein phosphatase 1 binding” (The Journal of Biological Chemistry, 2025).
Where a chain is given by its changes, count along the chain named.

Key:
pUL21-GFP = test: Co-IP of Myc-PP1 with pUL21-GFP; type: binding, HSV-1; conditions: for Co-IP of Myc-PP1 by pUL21-GFP: HEK 293T cells co-transfected, 24 h, immunoblot, versus WT Myc-PP1; for Abundance of Myc-PP1 in cell lysates: HEK 293T lysates used for IP; for Abundance of Myc-PP1 in cell lysates / Bound:input ratio of Myc-PP1 (effect of mutation): versus WT; for Bound:input ratio of Myc-PP1 (effect of mutation): densitometry, HEK 293T, ∗∗∗p < 0.001
Description: (§1) Bacterial expression plasmids encoding the mouse PP1γ catalytic domain (residues 7–300)-H6 and pUL21-H6, and mammalian expression vectors encoding pUL21(FV242AA)-GFP, pORF38-GFP and pORF38(FV255AA)-GFP, were described previously ([23]). We note that the mouse and human PP1γ catalytic domains share 100% amino acid identity. pORF38-NLT-H6 was generated by sub-cloning residues 1 to 263 of ORF38 into the vector pOPTnH ([52]). pUL21-RVxF-H6 was generated by inserting the mutations A237V and V239F into pUL21-H6 by QuikChange site-directed mutagenesis. Human PP1α was cloned from HeLa cell cDNA into a vector derived from pF5K (Promega) with an N-terminal Myc epitope tag via restriction-based cloning, and point mutations were introduced into Myc-PP1α by QuikChange mutagenesis. A plasmid encoding pUL21-GFP was generated by sub-cloning a codon-optimized synthetic UL21 gene (GeneArt) into pEGFP-N1 (Clontech), yielding an identical pUL21-GFP amino acid sequence as used in ([23]). pUL21-ΔL, -ΔR and -ΔLR were generated from this vector via inverse PCR, and point mutations were introduced via QuikChange mutagenesis.
(§2) Mycoplasma-free human embryonic kidney 293T (HEK 293T) cells (American Type Culture Collection #CRL-3216) were maintained in Dulbecco’s modified Eagle’s medium (DMEM) with high glucose (Merck), supplemented with 10% (v/v) heat-inactivated fetal calf serum and 2 mM L-glutamine (complete DMEM) in a humidified 5% CO2 atmosphere at 37 °C. The identity of the cell line was not independently confirmed.
(§3) Monolayers of HEK 293T cells were transfected with 7.7 μg of DNA per 9 cm dish, using 18 μg/ml 25 kDa branched polyethylenimine (Merck) or using TransIt-LT1 (Mirus) in accordance with the manufacturer’s instructions. Cells were harvested 24 h post-transfection and incubated for 30 min in ice-cold 10 mM Tris pH 7.5, 150 mM NaCl, 0.5 mM EDTA, 0.5% Igepal CA-630 (a.k.a. NP-40), 1% (v/v) EDTA-free protease inhibitor cocktail (Merck) before clarification at 21,000×g for 10 min at 4 °C. Lysate protein concentrations were measured using the bicinchoninic acid (BCA) assay (Pierce) and normalized before affinity capture using GFP-Trap resin (ChromoTek) following the manufacturer’s protocol. Samples were eluted by heating the resin to 95 °C for 5 min in 45 μl 2 × SDS-PAGE loading buffer. Proteins were separated by SDS-PAGE and transferred to 0.45 μm nitrocellulose membranes (PerkinElmer or Cytiva). Membranes were stained with Ponceau S and imaged using a G:Box XX9 (Syngene) before blocking in Tris-buffered saline with 0.1% TWEEN-20 (TBS-T) supplemented with 5% (w/v) non-fat milk powder. Immunoblotting was performed using antibodies diluted in blocking buffer as listed below, and immunoblots were imaged using an Odyssey CLx (LI-COR Biosciences). Densitometry was performed using Image Studio Lite version 5.2 (LI-COR Biosciences), and statistical tests were performed using Prism version 7 (GraphPad).
(§4) The following primary antibodies and dilutions were used for immunoblotting: rabbit anti-CERT 1:10,000 (Abcam #Ab72536), mouse anti-PP1α 1:1000 (Santa Cruz #sc-271762), mouse anti-Myc 1:4000 (Millipore #05–724), rat anti-tubulin (clone YL1/2) hybridoma supernatant 1:40 ([54]). The anti-CERT antibody was validated using a knock-out cell line. The anti-PP1α antibody has been validated by siRNA knockdown ([55]). The anti-Myc antibody was validated using control experiments lacking Myc-tagged transfected constructs ([56]). The anti-tubulin antibody has been validated by immunofluorescence microscopy, immuno-electron microscopy and radiolabeled immunosorbent assay ([54]). Secondary antibodies from LI-COR Biosciences were diluted 1:10,000 as follows: IRDye 680RD goat anti-rat (#926–68029) and goat anti-mouse (#926–68020), or IRDye 800CW goat anti-rabbit (#926–32221).

PP1 regulatory protein = conditions: cited from earlier work
Description: HEK 293T cells were co-transfected with pUL21-GFP and WT or mutant Myc-PP1, and lysates were subjected to GFP affinity capture before SDS-PAGE and immunoblott ...

endogenous PP1α = test: GFP affinity capture / co-IP of endogenous PP1α with GFP-tagged bait; type: binding, human; conditions: HEK 293T cells, 24 h post-transfection, GFP-Trap, immunoblot; representative of two independent experiments
Description: as §1, §2, §3, §4

## F257A
pUL21-GFP
  Co-IP of Myc-PP1 by pUL21-GFP: profoundly less efficient than for WT Myc-PP1
  Abundance of Myc-PP1 in cell lysates: lower abundance of these mutants in the cell lysates
  Bound:input ratio of Myc-PP1 (effect of mutation): significantly disrupt binding to pUL21-GFP
PP1 regulatory protein
  PP1 regulatory protein binding: severely decrease PP1 regulatory protein binding

## L289R
pUL21-GFP
  Co-IP of Myc-PP1 by pUL21-GFP: profoundly less efficient than for WT Myc-PP1
  Abundance of Myc-PP1 in cell lysates: lower abundance of these mutants in the cell lysates
  Bound:input ratio of Myc-PP1 (effect of mutation): significantly disrupt binding to pUL21-GFP
PP1 regulatory protein
  PP1 regulatory protein binding: severely decrease PP1 regulatory protein binding

## C291R
pUL21-GFP
  Co-IP of Myc-PP1 by pUL21-GFP: profoundly less efficient than for WT Myc-PP1
  Abundance of Myc-PP1 in cell lysates: lower abundance of these mutants in the cell lysates
  Bound:input ratio of Myc-PP1 (effect of mutation): significantly disrupt binding to pUL21-GFP
PP1 regulatory protein
  PP1 regulatory protein binding: severely decrease PP1 regulatory protein binding

B1: H247F (protein)
chain: MELSYATTMHYRDVVFYVTTDRNRAYFVCGGCVYSVGRPCASQPGEIAKFGLVVRGTGPDDRVVANYVRSELRQRGLQDVRPIGEDEVFLDSVCLLNPNVSSELDVINTNDVEVLDECLAEYCTSLRTSPGVLISGLRVRAQDRIIELFEHPTIVNVSSHFVYTPSPYVFALAQAHLPRLPSSLEALVSGLFDGIPAPRQPLDAHNPRTDVVITGRRAPRPIAGSGAGSGGAGAKRATVSEFVQVKFIDRVGPAGVSPAPPPNNTDSSSLVPGAQDSAPPGPTLRELWWVFYAADRALEEPRADSGLTREEVRAVRGFREQAWKLFGSAGAPRAFIGAALGLSPLQKLAVYYYIIHRERRLSPFPALVRLVGRYTQRHGLYVPRPDDPVLADAINGLFRDALAAGTTAEQLLMFDLLPPKDVPVGSDVQADSTALLRFIESQRLAVPGGVISPEHVAYLGAFLSVLYAGRGRMSAATHTARLTGVTSLVLAVGDVDRLSAFDRGAAGAASRTRAAGYLDVLLTVRLARSQHGQSV
modifications: left off: GFP (from the vector pEGFP-N1), end not stated, kept
Endogenous PP1α
  Co-IP of endogenous PP1α: co-precipitated more PP1α than did WT pUL21-GFP

B2: A237V (protein)
chain: B1 chain with A237V, F247H
modifications: left off: GFP (from the vector pEGFP-N1), end not stated, kept
Endogenous PP1α
  Co-IP of endogenous PP1α: co-precipitated more PP1α than did WT pUL21-GFP

B3: V239F (protein)
chain: B1 chain with V239F, F247H
modifications: left off: GFP (from the vector pEGFP-N1), end not stated, kept
Endogenous PP1α
  Co-IP of endogenous PP1α: co-precipitated more PP1α than did WT pUL21-GFP

B4: R250E (protein)
chain: B1 chain with F247H, R250E
modifications: left off: GFP (from the vector pEGFP-N1), end not stated, kept
Endogenous PP1α
  Co-IP of endogenous PP1α: dramatically reduced binding

B5: VV211AA (protein)
chain: B1 chain with V211A, V212A, F247H
modifications: left off: GFP (from the vector pEGFP-N1), end not stated, kept
Endogenous PP1α
  Co-IP of endogenous PP1α: PP1α coIP was abolished

B6: A232K (protein)
chain: B1 chain with A232K, F247H
modifications: left off: GFP (from the vector pEGFP-N1), end not stated, kept
Endogenous PP1α
  Co-IP of endogenous PP1α: did not dramatically alter PP1α coIP

B7: Q174R (protein)
chain: B1 chain with Q174R, F247H
modifications: left off: GFP (from the vector pEGFP-N1), end not stated, kept
Endogenous PP1α
  Co-IP of endogenous PP1α: PP1α coIP was abolished

B8: A218E (protein)
chain: B1 chain with A218E, F247H
modifications: left off: GFP (from the vector pEGFP-N1), end not stated, kept
Endogenous PP1α
  Co-IP of endogenous PP1α: PP1α coIP was abolished
